Test system: relapsed or refractory advanced solid tumors, melanoma
Assay: response by investigator assessment (RECIST 1.1)
Type: in vivo, human
Excerpt: Adverse events were coded using the Medical Dictionary for Regulatory Activities (MedDRA) Version 19.0 and were graded according to the National Cancer Institute (NCI) Common Terminology Criteria (CTC) for adverse events (CTCAE) (Version 4.03). The assessment period for treatment emergent adverse events (TEAEs) was from the first dose of study treatment to 30 days after the last dose of study medication, or until the start of subsequent antineoplastic therapy, whichever occurred first. Following baseline evaluation, response was assessed by investigators every two cycles by computed tomography or magnetic resonance imaging according to Response Evaluation Criteria in Solid Tumors (version 1.1).
The safety population was defined as all patients who received any amount of tovorafenib. The DLT-evaluable population was defined as all patients in the dose escalation phase of the study who either experienced DLT during cycle 1 or who completed at least 75% of the planned doses and had sufficient follow-up data to allow the investigators and sponsor to determine whether DLT had occurred. […] The PK-evaluable population included all patients who had sufficient dosing data and concentration–time data to permit calculation of PK parameters.

[1] = dose expansion Cohort 1, BRAF+ Naïve, Q2D n = 16
[2] = dose expansion Cohort 2, BRAF+ Previously treated, Q2D n = 6
[3] = dose expansion Cohort 3, NRAS+ Naïve, Q2D n = 14
[4] = dose expansion Cohort 4, NRAS + Previously treated, Q2D n = 1
[5] = dose expansion Cohort 5, BRAF/NRAS WT Naïve, Q2D n = 6
[6] = dose expansion Cohort 6, BRAF/NRAS WT Previously, Q2D n = 9

C[C@@H](NC(=O)c1ncnc(N)c1Cl)c1ncc(C(=O)Nc2cc(C(F)(F)F)c(Cl)cn2)s1 [tovorafenib]
median PFS (BRAF mutation-positive, RAF and MEK inhibitor-naïve cohort, 95% CI 1.9–14.3): 5.7 months
sustained PFS in an individual patient (BRAF mutation-positive, RAF and MEK inhibitor-naïve cohort, in response and on treatment at data cutoff): 45 months
duration of stable disease in one patient (NRAS-mutated melanoma, cohort 7): 42 months
best response of stable disease (Q2D dose escalation, 5 of 22 evaluable patients): 23%
responses (Q2D dose escalation, 22 evaluable patients): no responses
Objective response rate (Q2D expansion phase, 10 of 68 evaluable patients, 95% CI 7–25): 15%
median duration of response (Q2D expansion, 68 evaluable patients): 6.0 months
median progression-free survival (PFS) (Q2D expansion, 68 evaluable patients, 95% CI 1.8–3.6): 1.9 months
partial responses (QW dose escalation, 2 in 14 evaluable patients (endometrial cancer 600 mg, thyroid cancer 800 mg)): 14%
best response of stable disease (QW dose expansion, 9 of 17 evaluable patients): 53%
responses (QW dose expansion, 17 evaluable patients, NRAS mutation-positive melanoma naïve to RAF and MEK inhibitors): no responses
responses (partial) (cohort 1, BRAF mutation-positive melanoma, RAF and MEK inhibitor-naïve, Q2D, 8 of 16): 50%
responses (cohort 2, BRAF mutation-positive, RAF and MEK inhibitor-previously treated, Q2D, 1 of 6): 17%
responses (cohort 3, NRAS mutation-positive, RAF and MEK inhibitor-naïve, Q2D, 1 of 14): 7%
Best overall response: Complete response (dose escalation, Q2D n = 22): 0 n (%)
Best overall response: Partial response (dose escalation, Q2D n = 22): 0 n (%)
Best overall response: Progressive disease (dose escalation, Q2D n = 22): 17 (77) n (%)
Best overall response: Stable disease (dose escalation, Q2D n = 22): 5 (23) n (%)
Objective response rate (dose escalation, Q2D n = 22): 0 n (%)
Best overall response: Complete response (dose escalation, QW n = 14): 0 n (%)
Best overall response: Partial response (dose escalation, QW n = 14): 2 (14) n (%)
Best overall response: Progressive disease (dose escalation, QW n = 14): 8 (57) n (%)
Best overall response: Stable disease (dose escalation, QW n = 14): 4 (29) n (%)
Objective response rate (dose escalation, QW n = 14): 2 (14) n (%)
Best overall response: Complete response (dose escalation, Total n=36): 0 n (%)
Best overall response: Partial response (dose escalation, Total n=36): 2 (6) n (%)
Best overall response: Progressive disease (dose escalation, Total n=36): 25 (69) n (%)
Best overall response: Stable disease (dose escalation, Total n=36): 9 (25) n (%)
Objective response rate (dose escalation, Total n=36): 2 (6) n (%)
Best overall response: Complete response [1]: 0 n (%)
Best overall response: Partial response [1]: 8 (50) n (%)
Best overall response: Progressive disease [1]: 6 (38) n (%)
Best overall response: Stable disease [1]: 2 (13) n (%)
Objective response rate [1]: 8 (50) n (%)
Best overall response: Complete response [2]: 0 n (%)
Best overall response: Partial response [2]: 1 (17) n (%)
Best overall response: Progressive disease [2]: 2 (33) n (%)
Best overall response: Stable disease [2]: 3 (50) n (%)
Objective response rate [2]: 1 (17) n (%)
Best overall response: Complete response [3]: 0 n (%)
Best overall response: Partial response [3]: 1 (7) n (%)
Best overall response: Progressive disease [3]: 9 (64) n (%)
Best overall response: Stable disease [3]: 4 (29) n (%)
Objective response rate [3]: 1 (7) n (%)
Best overall response: Complete response [4]: 0 n (%)
Best overall response: Partial response [4]: 0 n (%)
Best overall response: Progressive disease [4]: 1 (100) n (%)
Best overall response: Stable disease [4]: 0 n (%)
Objective response rate [4]: 0 n (%)
Best overall response: Complete response [5]: 0 n (%)
Best overall response: Partial response [5]: 0 n (%)
Best overall response: Progressive disease [5]: 5 (83) n (%)
Best overall response: Stable disease [5]: 1 (17) n (%)
Objective response rate [5]: 0 n (%)
Best overall response: Complete response [6]: 0 n (%)
Best overall response: Partial response [6]: 0 n (%)
Best overall response: Progressive disease [6]: 6 (67) n (%)
Best overall response: Stable disease [6]: 3 (33) n (%)
Objective response rate [6]: 0 n (%)
Best overall response: Complete response (dose expansion Cohort 9, NRAS+ Naïve, QW n = 17): 0 n (%)
